Values of other authors as cited in US20250108152A1, “DRUG ELUTING POLYMER COMPOSED OF BIODEGRADABLE POLYMERS APPLIED TO SURFACE OF MEDICAL DEVICE” (The General Hospital Corporation, priority 2016, published 2025).

fraction of intravenous dose that penetrates bone	Structure (SMILES)
7-15%	Cc1nnc(SCC2=C(C(=O)O)N3C(=O)[C@@H](NC(=O)Cn4cnnn4)[C@H]3SC2)s1 [cefazolin]
5-19%	CO/N=C(\C(=O)N[C@@H]1C(=O)N2C(C(=O)O)=C(CSc3nc(=O)c(=O)[nH]n3C)CS[C@H]12)c1csc(N)n1 [ceftriaxone]

Structure (SMILES)	fraction of intravenous dose that penetrates bone
CN[C@H](CC(C)C)C(=O)N[C@H]1C(=O)N[C@@H](CC(N)=O)C(=O)N[C@H]2C(=O)N[C@H]3C(=O)N[C@H](C(=O)N[C@H](C(=O)O)c4cc(O)cc(O)c4-c4cc3ccc4O)[C@H](O)c3ccc(c(Cl)c3)Oc3cc2cc(c3O[C@@H]2O[C@H](CO)[C@@H](O)[C@H](O)[C@H]2O[C@H]2C[C@](C)(N)[C@H](O)[C@H](C)O2)Oc2ccc(cc2Cl)[C@H]1O [vancomycin]	5-20%
